Laboratory results as given in PubChem BioAssay AID328 (DTP/NCI, 2004).
Where “and” joins values, the source holds several entries; their conditions need not be identical. Equal entries are not always repeated. Inconclusive results and toxic doses are left out.

System: BDF1 mice, P388 leukemia ip, median survival T/C
Assay: NCI In Vivo Anticancer Drug Screen. Data for tumor model P388 Leukemia (intraperitoneal) in B6D2F1 (BDF1) mice
Details: endpoint: median survival time, higher = longer survival
Procedure, shortened: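 T/C = treated-group survival ÷ vehicle-control survival; tumour transplanted into mice before dosing.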

[1] = dose: 6.25 mg/kg/injection, schedule: Q01DX009 (ip), vehicle: saline with Tween-80
[2] = dose: 50.0 mg/kg/injection, schedule: Q01DX009 (ip), vehicle: saline with Tween-80
[3] = dose: 100.0 mg/kg/injection, schedule: Q01DX009 (ip), vehicle: saline with Tween-80
[4] = dose: 200.0 mg/kg/injection, schedule: Q01DX009 (ip), vehicle: saline with Tween-80
[5] = dose: 50.0 mg/kg/injection, schedule: Q04DX003 (ip), vehicle: saline
[6] = dose: 75.0 mg/kg/injection, schedule: Q04DX003 (ip), vehicle: saline
[7] = dose: 12.5 mg/kg/injection, schedule: Q01DX009 (ip), vehicle: saline with Tween-80
[8] = dose: 25.0 mg/kg/injection, schedule: Q01DX009 (ip), vehicle: saline with Tween-80
[9] = dose: 50.0 mg/kg/injection, schedule: Q01DX009 (ip), vehicle: saline
[10] = dose: 100.0 mg/kg/injection, schedule: Q01DX009 (ip), vehicle: saline
[11] = dose: 200.0 mg/kg/injection, schedule: Q01DX009 (ip), vehicle: saline
[12] = dose: 100.0 mg/kg/injection, schedule: Q04DX003 (ip), vehicle: saline sonified
[13] = dose: 200.0 mg/kg/injection, schedule: Q04DX003 (ip), vehicle: saline sonified
[14] = dose: 100.0 mg/kg/injection, schedule: Q04DX003 (ip), vehicle: saline with Tween-80
[15] = dose: 200.0 mg/kg/injection, schedule: Q04DX003 (ip), vehicle: saline with Tween-80
[16] = dose: 400.0 mg/kg/injection, schedule: Q04DX003 (ip), vehicle: saline with Tween-80

With `O=C1C=CC(=O)c2c(O)cccc21` the T/C (dose: 1.56 mg/kg/injection, schedule: Q01DX009 (ip), vehicle: saline with Tween-80) was 90 % of control, the T/C (dose: 3.13 mg/kg/injection, schedule: Q01DX009 (ip), vehicle: saline with Tween-80) was 95 % of control and the T/C [1] was 95 % of control.
With `COc1cccc(/C=C2\SC(=S)N(CCCN3CCOCC3)C2=O)c1OC` the T/C [2] was 91 % of control and the T/C [3] was 88 % of control.
With `O=C(NCc1cnccn1)Oc1ccc([N+](=O)[O-])cc1` the T/C [2] was 112 % of control, the T/C [3] was 94 % of control and the T/C [4] was 86 % of control. The T/C (dose: 400.0 mg/kg/injection, schedule: Q01DX009 (ip), vehicle: saline with Tween-80) was 97 % of control.
For `CC1=CC(=O)c2c(O)cc(C)c(C(=O)C(Cl)Cl)c2C1=O`, the T/C (dose: 10.0 mg/kg/injection, schedule: Q01DX009 (ip), vehicle: Klucel (hydroxypropylcellulose) (HPC)) was 112 % of control and the T/C (dose: 20.0 mg/kg/injection, schedule: Q01DX009 (ip), vehicle: Klucel (hydroxypropylcellulose) (HPC)) was 112 % of control.
For `O=C(O)c1onc2ccccc12`, the T/C (dose: 100.0 mg/kg/injection, schedule: Q01DX001 (ip), vehicle: saline with Tween-80) was 113 % of control and the T/C (dose: 200.0 mg/kg/injection, schedule: Q01DX001 (ip), vehicle: saline with Tween-80) was 90 % of control.
`Cc1ccc(C(O)(c2ccccc2)C2C(c3ccccc3)N2C2CCCCC2)cc1` (stereo not given) was tested, and the T/C (dose: 50.0 mg/kg/injection, schedule: Q01DX001 (ip), vehicle: saline sonified) was 96 % of control, the T/C (dose: 100.0 mg/kg/injection, schedule: Q01DX001 (ip), vehicle: saline sonified) was 96 % of control and the T/C (dose: 200.0 mg/kg/injection, schedule: Q01DX001 (ip), vehicle: saline sonified) was 92 % of control.
With `CC1(C)N=C(N)N=C(N)N1c1ccc(CNC(=O)Nc2cccc(S(=O)(=O)F)c2)cc1` the T/C (dose: 35.0 mg/kg/injection, schedule: Q04DX003 (ip), vehicle: saline) was 104 % of control, the T/C [5] was 150 % of control and the T/C [6] was 163 % of control. The T/C (dose: 99.0 mg/kg/injection, schedule: Q04DX003 (ip), vehicle: saline) was 200 % of control, the T/C (dose: 150.0 mg/kg/injection, schedule: Q04DX003 (ip), vehicle: saline) was 159 % of control and 195 % of control and 215 % of control and the T/C (dose: 225.0 mg/kg/injection, schedule: Q04DX003 (ip), vehicle: saline) was 225 % of control and 163 % of control. The T/C (dose: 300.0 mg/kg/injection, schedule: Q04DX003 (ip), vehicle: saline) was 177 % of control.
With `O=[N+]([O-])c1ccc(S(=O)(=O)Nc2ccc(-c3ccccc3)cc2)cc1` the T/C (dose: 100.0 mg/kg/injection, schedule: Q04DX003 (ip), vehicle: other) was 96 % of control, the T/C (dose: 200.0 mg/kg/injection, schedule: Q04DX003 (ip), vehicle: other) was 104 % of control and the T/C (dose: 400.0 mg/kg/injection, schedule: Q04DX003 (ip), vehicle: other) was 100 % of control.
With `O=C(CO)c1ccccc1` the T/C [1] was 93 % of control, the T/C [7] was 95 % of control and the T/C [8] was 93 % of control. For the same molecule, the T/C [2] was 104 % of control.
In the case of `CCCCOP1(=O)N(C)CCN1C`, the T/C [9] is reported as 102 % of control, the T/C [10] is reported as 105 % of control and the T/C [11] is reported as 102 % of control.
`O=C1Oc2ccccc2C1=O` was tested, and the T/C [9] was 100 % of control, the T/C [5] was 100 % of control and the T/C [10] was 100 % of control. The T/C (dose: 100.0 mg/kg/injection, schedule: Q04DX003 (ip), vehicle: saline) was 100 % of control and the T/C (dose: 200.0 mg/kg/injection, schedule: Q04DX003 (ip), vehicle: saline) was 100 % of control.
For `CCCC(O)(CCC)CC(=O)OCC`, the T/C [12] was 104 % of control, the T/C [13] was 109 % of control and the T/C (dose: 400.0 mg/kg/injection, schedule: Q04DX003 (ip), vehicle: saline sonified) was 113 % of control.
In the case of `COC(OC)c1ccccc1`, the T/C [2] is reported as 99 % of control, the T/C [3] is reported as 115 % of control and the T/C [4] is reported as 108 % of control.
In the case of `CCCC(C(=O)OCCN1CCCC12CCCCC2)C1CCCC1` (stereo not given), the T/C [7] is reported as 107 % of control, the T/C [8] is reported as 108 % of control and the T/C [2] is reported as 119 % of control.
With `CN1CCN=C1c1ccc(NC(=O)c2ccc(C(=O)Nc3ccc(C4=NCCN4C)cc3)cc2)cc1` the T/C (dose: 3.13 mg/kg/injection, schedule: Q04DX003 (ip), vehicle: saline) was 100 % of control, the T/C (dose: 4.0 mg/kg/injection, schedule: Q01DX009 (ip), vehicle: saline) was 213 % of control and the T/C (dose: 6.0 mg/kg/injection, schedule: Q01DX009 (ip), vehicle: saline) was 240 % of control. For the same molecule, the T/C (dose: 6.25 mg/kg/injection, schedule: Q04DX003 (ip), vehicle: saline) was 95 % of control and the T/C (dose: 9.0 mg/kg/injection, schedule: Q01DX009 (ip), vehicle: saline) was 245 % of control.
In the case of `CC(C)CCC(=O)C(C)C`, the T/C [14] is reported as 91 % of control, the T/C [15] is reported as 100 % of control and the T/C [16] is reported as 95 % of control.
`COc1ccc(C=NCCN=Cc2ccc(OC)cc2)cc1` was tested, and the T/C (dose: 100.0 mg/kg/injection, schedule: Q01DX001 (ip), vehicle: Klucel (hydroxypropylcellulose) (HPC)) was 109 % of control, the T/C (dose: 200.0 mg/kg/injection, schedule: Q01DX001 (ip), vehicle: Klucel (hydroxypropylcellulose) (HPC)) was 100 % of control and the T/C (dose: 400.0 mg/kg/injection, schedule: Q01DX001 (ip), vehicle: Klucel (hydroxypropylcellulose) (HPC)) was 95 % of control.
With `CS(=O)(=O)NN` the T/C (dose: 12.5 mg/kg/injection, schedule: Q01DX009 (ip), vehicle: saline) was 95 % of control, the T/C (dose: 25.0 mg/kg/injection, schedule: Q01DX009 (ip), vehicle: saline) was 95 % of control and the T/C (dose: 37.5 mg/kg/injection, schedule: Q04DX003 (ip), vehicle: saline) was 100 % of control. The T/C [9] was 90 % of control and the T/C [6] was 90 % of control.
For `CC1=CC(=O)NP(=O)(Oc2ccc3ccccc3c2)N1` (stereo not given), the T/C (dose: 25.0 mg/kg/injection, schedule: Q04DX003 (ip), vehicle: saline + alcohol) was 106 % of control, the T/C (dose: 50.0 mg/kg/injection, schedule: Q04DX003 (ip), vehicle: saline + alcohol) was 98 % of control and the T/C (dose: 100.0 mg/kg/injection, schedule: Q04DX003 (ip), vehicle: saline + alcohol) was 100 % of control. For the same molecule, the T/C (dose: 200.0 mg/kg/injection, schedule: Q04DX003 (ip), vehicle: saline + alcohol) was 94 % of control and the T/C (dose: 400.0 mg/kg/injection, schedule: Q04DX003 (ip), vehicle: saline + alcohol) was 95 % of control.
`CSc1cc(C)c(O)c(CO)c1` was tested, and the T/C (dose: 100.0 mg/kg/injection, schedule: Q01DX009 (ip), vehicle: other) was 100 % of control, the T/C (dose: 200.0 mg/kg/injection, schedule: Q01DX009 (ip), vehicle: other) was 95 % of control and the T/C (dose: 400.0 mg/kg/injection, schedule: Q01DX009 (ip), vehicle: other) was 95 % of control.
With `O=C1C2CCCC1C(c1ccccc1)C=C2c1ccc(O)cc1` (stereo not given) the T/C [14] was 104 % of control, the T/C [15] was 104 % of control and the T/C [16] was 114 % of control.
With `O=C(NC(=S)N1CC1)c1ccccc1` the T/C [2] was 93 % of control, the T/C [3] was 92 % of control and the T/C [4] was 104 % of control.
For `COC(=O)C1C2C(C)CC3(CC12C)OCCO3` (stereo not given), the T/C [14] was 90 % of control, the T/C [15] was 109 % of control and the T/C [16] was 100 % of control.
In the case of `CCN(CC)CC(=O)Nc1ccc(Cl)cc1C(O)c1ccccc1` (stereo not given), the T/C [9] is reported as 103 % of control, the T/C [10] is reported as 97 % of control and the T/C [11] is reported as 100 % of control.
In the case of `Clc1[nH]nc2ccccc12`, the T/C [7] is reported as 91 % of control, the T/C [8] is reported as 87 % of control and the T/C [2] is reported as 95 % of control. The T/C (dose: 50.0 mg/kg/injection, schedule: Q04DX003 (ip), vehicle: saline sonified) was 90 % of control, the T/C [3] was 100 % of control and the T/C [12] was 90 % of control. The T/C [13] was 90 % of control.
With `Oc1ccc(C2CCCCC2)c(O)c1` the T/C (dose: 50.0 mg/kg/injection, schedule: Q01DX009 (ip), vehicle: Klucel (hydroxypropylcellulose) (HPC)) was 100 % of control, the T/C (dose: 50.0 mg/kg/injection, schedule: Q04DX003 (ip), vehicle: Klucel (hydroxypropylcellulose) (HPC)) was 91 % of control and the T/C (dose: 100.0 mg/kg/injection, schedule: Q01DX009 (ip), vehicle: Klucel (hydroxypropylcellulose) (HPC)) was 104 % of control. The T/C (dose: 200.0 mg/kg/injection, schedule: Q01DX009 (ip), vehicle: Klucel (hydroxypropylcellulose) (HPC)) was 100 % of control and the T/C (dose: 200.0 mg/kg/injection, schedule: Q04DX003 (ip), vehicle: Klucel (hydroxypropylcellulose) (HPC)) was 91 % of control.
